Structures can show the parent of a compound that is named as a salt.
Experiments:
[1] = Test covering 4 days of treatment by oral administration, normal diet (cholesterol, Kunkel's phenol test); format: in vivo; settings: rats, fifth day
From the text: 2. Test covering 4 days of treatment by oral administration. In a lot of 30 rats subjected to a normal diet, the blood samplings were effected and the determinations of cholesterol and lipoproteins (Kunkel's phenol test) were made on the fifth day.

[2] = Solubility characteristics; format: physicochemical
[3] = Acute toxicity, LD50 (method of Miller and Tainter, mortality observed for 4 days); settings: mouse, in vivo, mice
From the text: The above-described chemical compounds were submitted to toxicity tests. The acute toxicity of certain compounds determined by the 50% lethal dose is entered in the following Table:
The LD50 was studied in accordance with the method of Miller and Tainter, the mortality of mice being observed for 4 days.

[4] = Hypercholesterolemia induced by the administration of Triton WR 1339; format: in vivo; settings: male rats; for Cholesterol % variation / Kunkel phenol % variation: Triton 200 mg/kg IV, 18 hours
Protocol: 3. […] Immediately after the injection, the products to be tested were administered IP and new samples of blood taken 18 hours later (at the maximum of the hypocholesterolemia produced by the Triton). |P being the biochemical parameter under consideration | p Triton + product p Triton + product | - | + 18 hours at the start |1 - × 100 | p Triton p Triton | - | + 18 hours at the start

[5] = Acute test: cholesterol and triglycerides 4 hours after intraperitoneal administration; format: in vivo; settings: rats
Protocol: The products to be studied were administered intraperitoneally to groups of identical rats; the doses were calculated on a basis of clofibrate in order to make the tests fully comparative. After a period of 4 hours, blood was removed by heart puncture and cholesterol and triglycerides determined.

[6] = IP, F 1393 340 mg/kg, 4 hours (comparison with reference products)
[7] = acute dose study, 340 mg/kg, HS (highly significant)
[8] = nicotinic acid 100 mg/kg IP, HS (highly significant)
[9] = IP, nicotinic acid 140 mg/kg, 4 hours
[10] = clofibrate 200 mg/kg IP, NS (not significant)
[11] = IP, clofibrate 200 mg/kg, 4 hours

## CC(C)(Oc1ccc(Cl)cc1)C(=O)OCCNC(=O)c1cccnc1 [F 1393, Hydrochloride of N-nicotinoyl, O-(p-chloro phenoxy) isobutanoyl ethanol amine]
[1]; F 1393 340 mg/kg
  Cholesterol % variation referred to the control: -44%
  Kunkel phenol test % variation referred to the control: -52%
[2]; N-methyl pyrrolidone
  Solubility in N-methyl pyrrolidone: 16%
[2]
  Solubility in ethanol: 3.5%
[2]; propylene glycol
  Solubility in propylene glycol: 5%
[2]; water
  solubility: 120 mg/mL
[3]; po, by mouth
  LD50 at 96 h: 3100 mg/kg
[3]; ip
  LD50 at 96 h: 560 mg/kg
[4]; F 1393 340 mg/kg IP, HS (highly significant)
  Cholesterol % variation: -68%
[4]; F 1393 340 mg/kg IP, S
  Kunkel phenol % variation: -89%
[5]; [6]
  Cholesterol % variation referred to the control: -32%
  Triglycerides % variation referred to the control: -43%
[5]; acute dose study, 50 mg/kg, HS (highly significant)
  Triglycerides % variation referred to the control: -26%
[5]; acute dose study, 50 mg/kg, NS (not significant)
  Cholesterol % variation referred to the control: -10%
[5]; acute dose study, 100 mg/kg
  Cholesterol % variation referred to the control: -0%
[5]; acute dose study, 100 mg/kg, HS (highly significant)
  Triglycerides % variation referred to the control: -29%
[5]; acute dose study, 200 mg/kg, HS (highly significant)
  Cholesterol % variation referred to the control: -22%
[5]; acute dose study, 200 mg/kg, S
  Triglycerides % variation referred to the control: -19%
[5]; [7]
  Cholesterol % variation referred to the control: -35%
  Triglycerides % variation referred to the control: -43%

## O=C(O)c1cccnc1 [Nicotinic acid, nicotinic acid]
[1]; nicotinic acid 100 mg/kg
  Cholesterol % variation referred to the control: -22%
[4]; [8]
  Cholesterol % variation: -67%
  Kunkel phenol % variation: -75%
[5]; [9]
  Cholesterol % variation referred to the control: -25%
  Triglycerides % variation referred to the control: -47%

## CCOC(=O)C(C)(C)Oc1ccc(Cl)cc1 [Clofibrate]
[1]; clofibrate 200 mg/kg
  Cholesterol % variation referred to the control: -34%
  Kunkel phenol test % variation referred to the control: -29%
[4]; [10]
  Cholesterol % variation: -15%
  Kunkel phenol % variation: -23%
[4]; Triton WR 1339
  Activity in the Triton test (in words): inactive
[5]; [11]
  Cholesterol % variation referred to the control: -17%
  Triglycerides % variation referred to the control: +23%

## CC(C)(Oc1ccc(Cl)cc1)C(=O)OCCNC(=O)c1ccc[n+]([O-])c1 [F 1416, N-oxide of N-nicotinoyl, O-(parachloro phenoxy) isobutanoyl ethanol amine]
[2]
  Solubility in ethanol: 3%
[2]; propylene alcohol
  Solubility in propylene alcohol: 1%
[2]; water
  Solubility in water (in words): Insoluble
[3]; po, by mouth
  LD50 at 96 h: 2400 mg/kg
[3]; ip
  LD50 at 96 h: ≥ 1000 mg/kg

Reference: US3987175A, “Derivatives of phenoxy isobutyric acid having hypolipemizing and hypocholesterolemizing action” (Pierre Fabre S.A., priority 1974, dated 1976)
